Assay results from PMC2923189, “An Oligopeptide Transporter of Mycobacterium tuberculosis Regulates Cytokine Release and Apoptosis of Infected Macrophages” (PLoS ONE, 2010).

Columns and labels:
[1] = molecular target: T1, OppAMTB (Mycobacterium tuberculosis, UniProt P9WGU5)
T1 construct: gene oppA

[2] = molecular target: OppA of M. tuberculosis (OppAMTB), substrate-binding polypeptide of the Rv1280c-Rv1283c peptide transporter, recombinant wild type (Mycobacterium tuberculosis) (UniProt P9WGU5); assay: radioligand binding
Sequence of OppA of M. tuberculosis (OppAMTB), substrate-binding polypeptide of the Rv1280c-Rv1283c peptide transporter, recombinant wild type (Mycobacterium tuberculosis) (P9WGU5 57-591): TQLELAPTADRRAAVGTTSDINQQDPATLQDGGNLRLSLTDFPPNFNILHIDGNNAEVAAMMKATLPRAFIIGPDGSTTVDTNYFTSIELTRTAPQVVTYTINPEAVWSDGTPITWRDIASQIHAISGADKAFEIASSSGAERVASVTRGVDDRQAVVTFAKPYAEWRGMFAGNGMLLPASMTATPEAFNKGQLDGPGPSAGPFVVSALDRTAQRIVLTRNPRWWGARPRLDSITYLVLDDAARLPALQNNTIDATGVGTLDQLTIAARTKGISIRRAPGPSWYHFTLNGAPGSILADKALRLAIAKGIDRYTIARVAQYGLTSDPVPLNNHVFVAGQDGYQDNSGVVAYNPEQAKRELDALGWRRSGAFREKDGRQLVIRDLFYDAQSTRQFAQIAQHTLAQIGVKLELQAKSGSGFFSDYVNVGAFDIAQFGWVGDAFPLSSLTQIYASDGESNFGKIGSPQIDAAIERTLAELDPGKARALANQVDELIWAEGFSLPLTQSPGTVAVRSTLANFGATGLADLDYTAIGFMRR

T1 sequence (P9WGU5 57-591): as above

N[C@@H](CS)C(=O)NCC(=O)O [cys-gly]
% GSH binding with 1 mM competitor [1]: dipeptide glu-cys was a more efficient competitor of GSH binding than the peptide cys-gly

N[C@@H](CCC(=O)N[C@@H](CS)C(=O)O)C(=O)O [glu-cys]
% GSH binding with 1 mM competitor [1]: dipeptide glu-cys was a more efficient competitor of GSH binding than the peptide cys-gly

glutathione (tripeptide)
amount bound at 1 mM GSH (pmol GSH/mg protein) [2]: 146
